Experimental data: paper PMC5342759, “An inhibitor of cholesterol absorption displays anti-myeloma activity by targeting the JAK2-STAT3 signaling pathway” (Oncotarget, 2016)

How the values were obtained:
Experiment in all cases: HotSpot radiometric kinase assay, purified recombinant human kinase, 10-dose IC50
Type in all cases: biochemical
[1] = molecular target: TYK2 (Homo sapiens, UniProt P29597)
[2] = molecular target: JAK1 (Homo sapiens, UniProt P23458)
[3] = molecular target: JAK2 (Homo sapiens, UniProt O60674)
Chain of JAK2 (O60674 whole entry): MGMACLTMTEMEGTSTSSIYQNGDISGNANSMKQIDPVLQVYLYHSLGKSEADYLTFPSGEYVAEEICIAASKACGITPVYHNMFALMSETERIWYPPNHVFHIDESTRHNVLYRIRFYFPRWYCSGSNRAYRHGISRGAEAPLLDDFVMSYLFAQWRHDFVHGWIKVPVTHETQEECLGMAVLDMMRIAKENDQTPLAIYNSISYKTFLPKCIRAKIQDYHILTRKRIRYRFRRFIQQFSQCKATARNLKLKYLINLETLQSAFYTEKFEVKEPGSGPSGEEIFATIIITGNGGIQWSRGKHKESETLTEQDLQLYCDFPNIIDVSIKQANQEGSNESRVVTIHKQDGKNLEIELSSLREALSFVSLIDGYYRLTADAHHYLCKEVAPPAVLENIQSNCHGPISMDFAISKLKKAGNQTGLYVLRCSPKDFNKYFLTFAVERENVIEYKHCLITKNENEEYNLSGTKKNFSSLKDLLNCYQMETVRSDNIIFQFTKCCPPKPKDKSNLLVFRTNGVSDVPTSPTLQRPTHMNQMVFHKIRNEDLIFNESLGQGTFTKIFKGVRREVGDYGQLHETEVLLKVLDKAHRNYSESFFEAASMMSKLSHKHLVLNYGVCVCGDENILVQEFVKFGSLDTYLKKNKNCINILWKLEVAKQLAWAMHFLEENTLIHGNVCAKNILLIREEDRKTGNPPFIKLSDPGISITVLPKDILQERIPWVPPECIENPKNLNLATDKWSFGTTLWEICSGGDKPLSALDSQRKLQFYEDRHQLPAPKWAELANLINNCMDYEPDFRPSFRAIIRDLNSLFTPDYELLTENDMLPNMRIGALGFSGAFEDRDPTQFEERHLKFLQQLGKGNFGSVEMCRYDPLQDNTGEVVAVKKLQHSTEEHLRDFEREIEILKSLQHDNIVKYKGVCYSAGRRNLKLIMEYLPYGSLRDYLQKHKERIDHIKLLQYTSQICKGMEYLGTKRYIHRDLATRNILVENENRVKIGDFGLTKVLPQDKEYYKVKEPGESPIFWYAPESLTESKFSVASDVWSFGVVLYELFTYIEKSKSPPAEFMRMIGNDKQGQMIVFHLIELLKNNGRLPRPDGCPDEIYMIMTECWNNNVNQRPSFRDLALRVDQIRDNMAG

[4] = molecular target: T1, JAK3 (Homo sapiens, UniProt P52333)
T1 sequence (P52333 1-1124): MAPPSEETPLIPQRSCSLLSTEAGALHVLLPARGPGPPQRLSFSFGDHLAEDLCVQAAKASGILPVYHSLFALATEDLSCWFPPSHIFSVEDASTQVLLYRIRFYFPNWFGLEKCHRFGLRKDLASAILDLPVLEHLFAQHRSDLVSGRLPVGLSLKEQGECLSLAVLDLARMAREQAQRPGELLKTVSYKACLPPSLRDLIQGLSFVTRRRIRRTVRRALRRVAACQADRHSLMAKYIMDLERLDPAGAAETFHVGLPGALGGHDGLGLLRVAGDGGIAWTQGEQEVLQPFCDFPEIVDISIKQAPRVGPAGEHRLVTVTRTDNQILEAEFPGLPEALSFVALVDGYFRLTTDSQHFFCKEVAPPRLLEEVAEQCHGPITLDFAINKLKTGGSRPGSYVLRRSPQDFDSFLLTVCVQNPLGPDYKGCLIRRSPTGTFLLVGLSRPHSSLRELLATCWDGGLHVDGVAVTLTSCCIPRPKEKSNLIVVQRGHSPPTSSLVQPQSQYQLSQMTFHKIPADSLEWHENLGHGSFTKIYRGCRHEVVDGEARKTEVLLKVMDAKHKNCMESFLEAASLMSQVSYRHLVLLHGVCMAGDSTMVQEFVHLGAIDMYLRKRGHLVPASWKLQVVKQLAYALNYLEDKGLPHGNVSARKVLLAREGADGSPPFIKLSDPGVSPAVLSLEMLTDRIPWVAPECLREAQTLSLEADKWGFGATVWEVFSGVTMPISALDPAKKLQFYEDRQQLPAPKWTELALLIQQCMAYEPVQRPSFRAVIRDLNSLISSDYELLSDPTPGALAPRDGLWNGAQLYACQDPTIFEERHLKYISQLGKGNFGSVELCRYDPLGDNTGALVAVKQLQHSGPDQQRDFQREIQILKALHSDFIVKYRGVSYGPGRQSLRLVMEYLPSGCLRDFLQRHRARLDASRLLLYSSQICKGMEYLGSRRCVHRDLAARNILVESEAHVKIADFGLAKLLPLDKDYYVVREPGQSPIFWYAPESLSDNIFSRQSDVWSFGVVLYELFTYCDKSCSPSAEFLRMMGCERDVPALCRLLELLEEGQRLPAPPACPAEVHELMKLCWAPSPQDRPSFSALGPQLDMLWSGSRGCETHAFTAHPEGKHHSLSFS

Chain of JAK1 (P23458 whole entry): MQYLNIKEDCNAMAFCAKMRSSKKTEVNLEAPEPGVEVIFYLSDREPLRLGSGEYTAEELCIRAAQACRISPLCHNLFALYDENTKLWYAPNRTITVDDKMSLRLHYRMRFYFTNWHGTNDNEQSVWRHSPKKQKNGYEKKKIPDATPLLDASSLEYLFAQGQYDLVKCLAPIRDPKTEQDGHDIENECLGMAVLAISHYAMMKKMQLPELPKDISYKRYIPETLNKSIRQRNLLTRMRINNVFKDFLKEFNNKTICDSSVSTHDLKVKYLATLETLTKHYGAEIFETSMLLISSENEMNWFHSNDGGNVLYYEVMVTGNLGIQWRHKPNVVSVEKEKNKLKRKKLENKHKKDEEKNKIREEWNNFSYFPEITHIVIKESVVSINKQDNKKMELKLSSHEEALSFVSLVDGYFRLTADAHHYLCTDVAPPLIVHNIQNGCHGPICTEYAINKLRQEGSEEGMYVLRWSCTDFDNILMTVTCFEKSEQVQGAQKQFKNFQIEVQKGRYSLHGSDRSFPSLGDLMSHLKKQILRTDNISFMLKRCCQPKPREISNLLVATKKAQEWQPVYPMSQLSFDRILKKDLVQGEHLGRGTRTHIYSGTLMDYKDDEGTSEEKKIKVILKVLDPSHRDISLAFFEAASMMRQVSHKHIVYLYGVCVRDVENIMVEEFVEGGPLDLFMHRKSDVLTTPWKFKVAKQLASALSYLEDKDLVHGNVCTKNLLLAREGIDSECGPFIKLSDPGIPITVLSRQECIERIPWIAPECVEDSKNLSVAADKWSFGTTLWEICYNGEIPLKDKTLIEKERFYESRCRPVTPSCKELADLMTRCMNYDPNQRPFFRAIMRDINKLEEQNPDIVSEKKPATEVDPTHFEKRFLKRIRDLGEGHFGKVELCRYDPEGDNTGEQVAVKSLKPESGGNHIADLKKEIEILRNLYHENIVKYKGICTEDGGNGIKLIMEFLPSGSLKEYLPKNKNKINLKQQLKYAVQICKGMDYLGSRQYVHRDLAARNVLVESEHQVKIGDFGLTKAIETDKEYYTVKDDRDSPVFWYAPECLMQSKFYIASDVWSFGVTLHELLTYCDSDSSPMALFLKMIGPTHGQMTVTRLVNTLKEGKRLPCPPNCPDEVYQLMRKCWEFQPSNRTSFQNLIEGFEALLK
Chain of TYK2 (P29597 whole entry): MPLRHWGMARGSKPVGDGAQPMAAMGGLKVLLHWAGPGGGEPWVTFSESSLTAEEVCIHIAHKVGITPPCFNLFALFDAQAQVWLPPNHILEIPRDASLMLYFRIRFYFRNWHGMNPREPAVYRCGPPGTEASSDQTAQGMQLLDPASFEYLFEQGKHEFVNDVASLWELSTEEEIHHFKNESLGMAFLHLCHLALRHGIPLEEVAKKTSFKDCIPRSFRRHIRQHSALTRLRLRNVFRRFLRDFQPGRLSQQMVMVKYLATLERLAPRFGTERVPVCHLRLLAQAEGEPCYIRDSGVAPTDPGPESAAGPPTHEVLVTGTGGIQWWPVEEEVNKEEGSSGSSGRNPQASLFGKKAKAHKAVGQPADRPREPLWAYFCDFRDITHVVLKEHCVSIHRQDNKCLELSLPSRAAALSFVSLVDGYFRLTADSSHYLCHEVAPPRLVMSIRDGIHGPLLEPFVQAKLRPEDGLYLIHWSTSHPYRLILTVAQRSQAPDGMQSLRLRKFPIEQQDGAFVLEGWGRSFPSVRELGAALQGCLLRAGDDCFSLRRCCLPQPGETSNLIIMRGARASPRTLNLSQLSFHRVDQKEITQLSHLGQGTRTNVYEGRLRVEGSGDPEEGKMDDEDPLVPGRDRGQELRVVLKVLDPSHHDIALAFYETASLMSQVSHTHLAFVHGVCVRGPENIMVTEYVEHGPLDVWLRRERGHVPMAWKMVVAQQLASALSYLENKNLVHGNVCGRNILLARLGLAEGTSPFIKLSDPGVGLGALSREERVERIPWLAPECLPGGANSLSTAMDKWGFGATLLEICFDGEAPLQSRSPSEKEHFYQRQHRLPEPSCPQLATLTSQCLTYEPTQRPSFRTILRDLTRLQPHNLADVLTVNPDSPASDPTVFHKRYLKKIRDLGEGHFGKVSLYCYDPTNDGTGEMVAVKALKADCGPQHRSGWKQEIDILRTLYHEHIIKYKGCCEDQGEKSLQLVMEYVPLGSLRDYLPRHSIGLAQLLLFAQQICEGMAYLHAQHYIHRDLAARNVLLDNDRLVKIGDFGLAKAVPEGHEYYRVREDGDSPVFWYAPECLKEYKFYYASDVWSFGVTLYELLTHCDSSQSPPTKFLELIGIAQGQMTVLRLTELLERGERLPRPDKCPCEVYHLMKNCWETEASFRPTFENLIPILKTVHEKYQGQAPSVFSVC

Structure (SMILES): N#C/C(=N\Nc1ccc(C(F)(F)F)cc1)S(=O)(=O)c1cccs1 [SC09]
- IC50 [1]: 111 µM
- IC50 [2]: 153 µM
- IC50 [3]: 8.88 µM
- IC50 [4]: 139 µM
